# From ChEMBL document CHEMBL1155077, “Kinesin spindle protein (KSP) inhibitors. 9. Discovery of (2S)-4-(2,5-difluorophenyl)-n-[(3R,4S)-3-fluoro-1-methylpiperidin-4-yl]-2-(hydroxymethyl)-N-methyl-2-phenyl-2,5-dihydro-1H-pyrrole-1-carboxamide (MK-0731) for the treatment of taxane-refractory cancer” (J Med Chem, 2008)
# Calls of active or inactive are those of the source. No cut-off for these calls is given here.
# Experiments:
# [1] = Volume of distribution at steady state in rat at 1 mg/kg, iv; assay type: ADME, organism-based; design: dose 1 mg/kg, route intravenous; conditions: in vivo, read-out: Vdss
# KB-v = assay: Inhibition of tumor growth in human KB-v cells expressing MDR1 xenografted clr:NU/NU-nuBR mouse assessed as change in tumor volume at 40 mg/kg, sc administered qd x 1 dosing schedule relative to control
# [2] = Volume of distribution at steady state in rhesus monkey at 0.4 mg/kg, iv; assay type: ADME, organism-based, Macaca mulatta; design: dose 0.4 mg/kg, route intravenous; conditions: in vivo, read-out: Vdss
# A2780 = assay: Inhibition of tumor growth in human A2780 cells xenografted clr:NU/NU-nuBR mouse assessed as change in tumor volume at 100 mg/kg, sc administered q4d x 3 dosing schedule
# Kinesin-1 heavy chain = target: T1, Kinesin-1 heavy chain (Homo sapiens, UniProt P33176); assay: Inhibition of cloned human uKHC
# T1 sequence (P33176 whole entry): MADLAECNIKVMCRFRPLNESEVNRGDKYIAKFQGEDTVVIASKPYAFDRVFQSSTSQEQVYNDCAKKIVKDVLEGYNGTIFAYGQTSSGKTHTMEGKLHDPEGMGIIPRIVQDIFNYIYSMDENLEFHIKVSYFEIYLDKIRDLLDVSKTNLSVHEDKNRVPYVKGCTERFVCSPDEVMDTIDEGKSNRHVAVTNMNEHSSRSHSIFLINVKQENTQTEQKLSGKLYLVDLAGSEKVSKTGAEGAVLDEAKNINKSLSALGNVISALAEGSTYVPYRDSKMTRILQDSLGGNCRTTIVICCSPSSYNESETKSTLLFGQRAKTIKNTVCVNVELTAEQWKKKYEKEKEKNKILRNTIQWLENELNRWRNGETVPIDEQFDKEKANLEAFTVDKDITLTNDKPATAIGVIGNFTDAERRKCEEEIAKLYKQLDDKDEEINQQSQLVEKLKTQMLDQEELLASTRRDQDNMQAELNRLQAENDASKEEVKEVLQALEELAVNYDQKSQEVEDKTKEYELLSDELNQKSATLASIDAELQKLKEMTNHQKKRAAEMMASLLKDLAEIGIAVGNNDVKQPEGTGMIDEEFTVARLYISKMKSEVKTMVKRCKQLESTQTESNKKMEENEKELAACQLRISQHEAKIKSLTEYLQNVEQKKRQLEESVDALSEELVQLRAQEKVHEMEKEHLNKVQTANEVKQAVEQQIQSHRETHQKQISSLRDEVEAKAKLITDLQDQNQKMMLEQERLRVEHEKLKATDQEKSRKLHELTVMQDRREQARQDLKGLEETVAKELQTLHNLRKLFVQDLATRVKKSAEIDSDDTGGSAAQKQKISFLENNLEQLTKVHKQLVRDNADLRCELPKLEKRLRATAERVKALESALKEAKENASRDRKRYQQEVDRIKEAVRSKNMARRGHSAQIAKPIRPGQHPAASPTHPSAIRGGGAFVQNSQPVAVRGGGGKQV
# [3] = Clearance in dog at 0.4 mg/kg, iv; assay type: ADME, organism-based, Canis lupus familiaris; design: dose 0.4 mg/kg, route intravenous; conditions: in vivo
# [4] = target: Kinesin-like protein KIF3A (Homo sapiens, UniProt Q9Y496); assay: Inhibition of cloned human Kif3A
# Chain of Kinesin-like protein KIF3A (Q9Y496 whole entry): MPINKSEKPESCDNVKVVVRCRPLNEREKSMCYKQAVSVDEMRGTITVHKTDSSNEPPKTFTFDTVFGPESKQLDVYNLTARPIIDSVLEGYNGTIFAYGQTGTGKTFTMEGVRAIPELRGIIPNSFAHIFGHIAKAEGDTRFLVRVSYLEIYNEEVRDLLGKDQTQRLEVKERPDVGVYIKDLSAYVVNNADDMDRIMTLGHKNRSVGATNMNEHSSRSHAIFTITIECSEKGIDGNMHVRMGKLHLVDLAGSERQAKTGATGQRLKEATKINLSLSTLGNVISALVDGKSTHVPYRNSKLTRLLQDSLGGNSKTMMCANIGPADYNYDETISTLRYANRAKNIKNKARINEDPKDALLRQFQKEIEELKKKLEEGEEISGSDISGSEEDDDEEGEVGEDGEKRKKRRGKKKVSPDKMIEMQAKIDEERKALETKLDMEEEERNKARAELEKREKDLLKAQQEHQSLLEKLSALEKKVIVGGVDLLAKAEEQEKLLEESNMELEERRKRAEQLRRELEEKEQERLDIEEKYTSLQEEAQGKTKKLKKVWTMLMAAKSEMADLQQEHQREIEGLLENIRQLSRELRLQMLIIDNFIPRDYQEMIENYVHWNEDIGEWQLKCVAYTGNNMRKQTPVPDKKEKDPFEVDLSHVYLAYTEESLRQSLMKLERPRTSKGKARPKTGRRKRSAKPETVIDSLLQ
# [5] = Volume of distribution at steady state in dog at 0.4 mg/kg, iv; assay type: ADME, organism-based, Canis lupus familiaris; design: dose 0.4 mg/kg, route intravenous; conditions: in vivo, read-out: Vdss
# [6] = target: Kinesin-like protein KIF1B (Homo sapiens, UniProt O60333); assay: Inhibition of cloned human Kif1B
# Chain of Kinesin-like protein KIF1B (O60333 whole entry): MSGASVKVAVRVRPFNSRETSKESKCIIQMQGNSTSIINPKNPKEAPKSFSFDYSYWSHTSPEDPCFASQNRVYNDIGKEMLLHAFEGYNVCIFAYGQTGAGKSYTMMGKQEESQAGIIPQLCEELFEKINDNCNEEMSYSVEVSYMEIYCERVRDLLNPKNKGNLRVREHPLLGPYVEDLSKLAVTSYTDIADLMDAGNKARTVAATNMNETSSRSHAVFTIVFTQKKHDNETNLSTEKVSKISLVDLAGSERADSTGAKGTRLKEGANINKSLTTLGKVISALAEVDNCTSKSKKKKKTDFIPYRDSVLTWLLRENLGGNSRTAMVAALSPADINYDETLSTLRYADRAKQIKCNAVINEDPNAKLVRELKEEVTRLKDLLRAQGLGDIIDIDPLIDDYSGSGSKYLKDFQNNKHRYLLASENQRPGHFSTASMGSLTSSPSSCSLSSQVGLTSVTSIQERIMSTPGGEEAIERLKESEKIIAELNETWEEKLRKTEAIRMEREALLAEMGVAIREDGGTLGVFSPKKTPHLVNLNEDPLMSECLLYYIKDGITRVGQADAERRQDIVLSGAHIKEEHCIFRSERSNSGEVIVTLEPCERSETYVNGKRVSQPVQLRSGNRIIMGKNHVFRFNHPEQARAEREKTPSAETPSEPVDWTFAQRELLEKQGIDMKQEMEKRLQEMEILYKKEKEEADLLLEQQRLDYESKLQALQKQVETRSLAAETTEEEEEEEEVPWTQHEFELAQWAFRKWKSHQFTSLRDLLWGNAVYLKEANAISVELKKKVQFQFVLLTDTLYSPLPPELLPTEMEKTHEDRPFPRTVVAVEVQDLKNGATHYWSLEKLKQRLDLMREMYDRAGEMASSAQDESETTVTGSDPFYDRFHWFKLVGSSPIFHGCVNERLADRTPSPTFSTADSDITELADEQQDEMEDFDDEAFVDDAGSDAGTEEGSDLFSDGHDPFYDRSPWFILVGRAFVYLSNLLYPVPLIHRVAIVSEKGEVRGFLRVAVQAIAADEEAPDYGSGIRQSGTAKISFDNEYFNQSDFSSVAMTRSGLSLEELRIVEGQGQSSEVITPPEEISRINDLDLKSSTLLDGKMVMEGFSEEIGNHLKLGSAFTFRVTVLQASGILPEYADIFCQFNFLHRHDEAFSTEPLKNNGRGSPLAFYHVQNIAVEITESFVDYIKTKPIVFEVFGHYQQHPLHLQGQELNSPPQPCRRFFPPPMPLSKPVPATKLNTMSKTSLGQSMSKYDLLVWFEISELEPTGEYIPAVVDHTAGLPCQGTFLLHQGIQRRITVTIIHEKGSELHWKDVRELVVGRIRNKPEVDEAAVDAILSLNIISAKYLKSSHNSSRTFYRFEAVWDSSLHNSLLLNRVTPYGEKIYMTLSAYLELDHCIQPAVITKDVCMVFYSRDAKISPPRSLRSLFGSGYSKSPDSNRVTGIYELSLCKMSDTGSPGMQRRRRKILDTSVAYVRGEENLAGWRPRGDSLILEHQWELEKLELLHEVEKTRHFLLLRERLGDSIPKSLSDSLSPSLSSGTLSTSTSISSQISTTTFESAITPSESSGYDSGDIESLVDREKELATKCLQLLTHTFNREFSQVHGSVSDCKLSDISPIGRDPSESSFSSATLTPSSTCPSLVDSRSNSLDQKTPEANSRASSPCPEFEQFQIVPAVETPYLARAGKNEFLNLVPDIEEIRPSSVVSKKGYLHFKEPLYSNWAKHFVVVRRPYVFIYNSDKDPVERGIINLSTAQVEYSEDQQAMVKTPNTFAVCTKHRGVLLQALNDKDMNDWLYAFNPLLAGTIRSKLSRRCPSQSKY
compound,measurement,setting,value
CN1CC[C@H](N(C)C(=O)N2CC(c3cc(F)ccc3F)=C[C@@]2(CO)c2ccccc2)[C@H](F)C1,Vd,[1],3 L/kg
same,Activity,KB-v,Active
same,Vd,[2],2.3 L/kg
same,Activity,A2780,Active
same,IC50,Kinesin-1 heavy chain,> 50 µM
same,clearance,[3],15.1 mL/min/kg
same,IC50,[4],> 50 µM
same,Vd,[5],1.6 L/kg
same,IC50,[6],> 50 µM
